Source: US20130150399A1, “INHIBITORS OF THE UNFOLDED PROTEIN RESPONSE AND METHODS FOR THEIR USE” (The Board of Trustees of the Leland Stanford Junior …, priority 2006, published 2013)

What was measured:
[1] = tested on: RPMI 8226 myeloma cells; assay: Cell proliferation assay, RPMI 8226; assay type: cell-based, human; conditions: dose-dependent
[2] = tested on: HT1080 tumor xenografts; assay: Immunohistochemical analysis of tumor xenografts (pimonidazole, cleaved caspase-3); assay type: in vivo, mice; conditions: three doses, 50 mg/kg
Procedure: Tumor-bearing mice were injected i.p. with hypoxyprobe (50 mg/kg) 1 hour prior to sacrifice. Mice were euthanised under anesthesia by cervical dislocation, and tumors were surgically resected, embedded in OCT compound (Sakura Tissue Tek), and frozen at −80° C. Tumors were sectioned at 8 μm, fixed in 4% paraformaldehyde, and blocked in PBS-4% BSA. Tissue sections were incubated overnight in block solution containing antisera specific for hypoxyprobe (1:250) and cleaved caspase-3 (1:400). Slides were washed three times with block solution and incubated for 2 hours at room temperature with anti-mouse Alexa 488 or anti-rabbit Alexa 594 (Invitrogen, San Diego, Calif.). Slides were washed five times in block solution, and coverslips mounted with Permount supplemented with DAPI.
Immunohistochemical analysis of tumor xenografts. […] D. Quantification of tumor immunohistochemistry. At least 8 randomly chosen fields (>300 cells/field) per tumor were scored for pimonidazole and cleaved caspase-3 staining. A minimum of 3 tumors (250-300 mm^3 at harvest) were analyzed per treatment group. […]
We further examined tumors from control and irestatin-treated mice for differences in cell survival. […] The increase in apoptosis was most pronounced in hypoxic tissue regions of tumors, as determined by co-immunoreactivity for pimonidazole adducts (FIG. 14C, bottom panel). […]

Cc1csc(NC(=O)CSc2nc3c(c(C(F)(F)F)c2C#N)CCC3)n1 [Compound 9389] was tested, and the “growth of RPMI 8226” value [1] was “strongly inhibited the growth”, the “cleaved caspase-3 in tumors relative to vehicle” value [2] was “significant increase in cleaved caspase-3” and the “apoptotic fraction of hypoxic cells in tumors” value ([2]; cleaved caspase-3 in pimonidazole-positive cells) was roughly 45%.
